These results are taken from US8796249B2, “TGR5 modulators and methods of use thereof” (Intercept Pharmaceuticals, Inc., priority 2008, dated 2014).

Counter-ions that a name gives are not always drawn.

One data set deals with pancreatic esterases. Description: In vitro metabolic stability in simulated duodenal/pancreatic fluid. The format is in vitro ADME, porcine. As to the method: This study has been performed for 2A since it contains an ester bond in the side chain and the aim was to verify the stability in presence of esterase enzymes like present in duodenal and pancreatic juice. Simulated pancreatic fluid was prepared by dissolving 10 g/L Pancreatin (Sigma P8096: pancreatin from porcine pancreas, activity 1× USP specifications) in 0.05M phosphate buffer, pH=7.2±0.1. Then, 4-mL aliquots of the simulated pancreatic fluid were added of […] of the studied BA and incubated for different times (0, 30, 60, 90, 120, 180 and 240 min) at 37° C. After incubation, a 2-mL aliquot of each solution was added with 2 mL of 0.1M NaOH and subjected to bile acids extraction by SPE and analysis by thin-layer chromatography and mass spectrometry as described above. […] Olive oil was used as a reference as reported in the USP protocol.

Data set [1] can be described thus: Critical micellar concentration by surface tension (maximum bubble-pressure method). The format is physicochemical. The protocol:
The critical micellar concentration (CMC) was determined by surface tension (ST) measurements using a maximum bubble-pressure method which give surface tension values slightly affected by potential impurities like static methods are. The tensiometer was a […] Research Corp., Milwaukee, Wis.) equipped with two glass probes of 0.5 and 4.0 mm diameters connected to a source of nitrogen. The bubble frequency was 1 bubble/second in distilled water at 26° C. (P=2.7 atm) and the calibration was made with double-distilled water and methanol. The surface tension of BA sodium salts solutions in NaCl 0.15 M was measured at various concentrations inside the 0.13-50 mM range. The surface tension values were plotted against the logarithm of the bile salt concentration; the regression lines corresponding to the two parts of the curve (monomeric and micellar phases) were calculated using the method of least squares, and the intersection of the lines was taken as the CMC value. From the ST vs concentration curves the value of the surface tension at the CMC (equilibrium between monomers and multimers species) was also calculated giving information about the detergency power which is related to the size of the micelles with associate surface tension lowering capacity. The CMC was evaluated by surface tension measurements in non equilibrium conditions i.e. in conditions that impurities slightly affect the surface tension results (FIG. 1).

The subject of the next data set is C57BL6J mice. Description: Diet-induced obesity mouse model. The format is in vivo. As to the method:
The goal of the study was to assess the therapeutic potency of compound 3A in a mouse model of diet-induced obesity. Compound 3A was administered via food administration for 16 weeks to male C57BL6J mice that were previously subjected for 10 weeks to a high fat diet.
For this study, male C57BL6J mice (5 weeks of age) were divided in 2 groups: one group of animals received chow diet to control the onset of obesity, one group of animals received a high fat diet. Compound 3A was tested on the animals that received the high fat diet (HFD). The animals are then analyzed during a period of 13 weeks. The groups were as follows: • 1: chow diet • 2: high fat diet • 3: high fat diet+3A • During the entire study, body weight and food intake were monitored twice weekly. • The period for the onset of obesity was 10 weeks. At the end of the 10 weeks, body composition was analyzed by dual energy X-ray absorptiometry (dexascan) and serum levels of transaminases, glucose, triglycerides, cholesterol, HDL-C, LDL-C and insulin were measured. […]
The Dexa analyses were performed by the ultra high resolution PIXIMUS Series Densitometer (0.18×0.18 mm pixels, GE Medical Systems, Madison, Wis., USA). Bone mineral density (BMD in g/cm^2) and body composition were determined by using the PIXIMUS software (version 1.4×, GE Medical Systems). […]

As to `CCC1C(O)C2C3CCC(C(C)CC(C)OS(=O)(=O)O)C3(C)CCC2C2(C)CCC(O)CC12` [Compound 2A, 3α,7α,23-trihydroxy-6α-ethyl-23(S)-methyl-24-nor-5β-cholan-23-sulfate Sodium Salt], in the data set with pancreatic esterases (10 g/L pancreatin, pH 7.2, 37° C., up to 240 min), the “metabolic stability in simulated pancreatic fluid” value is given as “very stable”. In addition, the “hydrolysis of ester bond (sulphate) by pancreatic esterases” value in the data set with pancreatic esterases (simulated pancreatic fluid) was “not hydrolyzed”.
With `CC[C@H]1[C@@H](O)[C@@H]2[C@H](C[C@H](O)[C@]3(C)[C@@H]([C@H](C)CCCS(=O)(=O)[O-])CC[C@@H]23)[C@@]2(C)CC[C@@H](O)C[C@@H]12.[Na+]` [Compound 3A, 3α,7α,12α-trihydroxy-6α-ethyl-5β-cholan-24-sulfonate Sodium Salt], the “surface tension lowering capacity” value in data set [1] (NaCl […]) is given as “high surface tension lowering capacity”. Moreover, in data set [1] ([…] NaCl water solution), the “CMC […] Na+” value amounted to 2.8 mM and the “STCMC (surface tension at CMC)” value amounted to 43.4 Dyne/cm. Besides, the body weight gain entry in the data set with C57BL6J mice (HF-fed mice, compound in food, 0-9 weeks (FIG. 8)) is recorded as “blunted”. Further, in the data set with C57BL6J mice (HFD mice, 5 weeks after treatment (FIG. 9)), the “fat gain (body composition)” value was “reduces fat gain”.
